Experimental data published in US4863493A, “High purity acetylene gas” (Nichigo Acetylene Kabushiki Kaisha, priority 1987, dated 1989).

Legend:
[1] = in DMF, at 25° C.; data from catalogue of NITTO CHEMICAL INDUSTRY CO., LTD.; cited from earlier work
[2] = Acetylene stripped from DMF saturated with acetylene on heating; format: physicochemical; details: heated to 0° C.
From the text: The amount of acetylene dissolved in a solvent depends on the temperature of the solvent. Usually increasing the temperature tends to decrease the solubility. […] As mentioned above, the terminology "stripped acetylene" is intended to refer to "acetylene stripped from a solvent".

Row | acetylene at S.T.P. stripped from 1 l of DMF ([2]; DMF saturated with acetylene at -40° C.) | acetylene at S.T.P. stripped from 1 l of DMF ([2]; DMF saturated with acetylene at -60° C.) | Compound | Solubility [1] [l/l]
1 | – | – | [HH] [H2, hydrogen] | 0.04
2 | – | – | O=C=O [CO2, carbon dioxide] | 4.5
3 | about 238 l | about 382 l | C#C [C2 H2, acetylene] | 31.4
4 | – | – | [C-]#[O+] [CO] | 0.06
